Data reported in patent US7935532B2, “DWF4 polynucleotides, polypeptides and uses thereof” (Arizona Board of Regents for and on behalf of Arizona State …, priority 1999, dated 2011).

Columns and labels:
dwf4 seedlings [1] = experiment: Feeding of BR biosynthetic intermediates to dwf4 seedlings in liquid media (rescue, dose-response); assay type: in vivo, Arabidopsis thaliana; conditions: for rescue of the light-grown dwf4 phenotype: liquid media
Experimental: In view of the results described above, we hypothesized that DWF4 mediates one or more of several steroid hydroxylation steps in the BR biosynthetic pathway. To test this, dwf4 was grown on all of the available biosynthetic intermediates in the BR biosynthetic pathways and examined to ascertain which intermediates could rescue the dwarf phenotype. In addition to the intermediates belonging to the early C-6 oxidation and late C-6 oxidation pathways (Choi et al. (1997), supra), 22α-hydroxycampesterol (22-OHCR), 6α-hydroxycastasterone (6-OHCT) (Takatsuto et al. (1997) J. Chem. Res. (synop.) 11:418-419), and […] (S. Takatsuto, T. Watanabe, T. Noguchi, and S. Fujioka, unpublished data) were synthesized and tested.
Germinated seedlings were transferred to media supplemented with one of the intermediates or BL to pinpoint the step catalyzed by DWF4. […] In addition, the rescued seedlings were less green than the dwarfs. These experiments were conducted in liquid media. Feeding experiments performed in the dark yielded similar results.
However, on CT the overall morphology of dwf4 was essentially rescued to wild-type phenotype at 3×10^−7 M and higher, whereas with 6-deoxoCT, rescue occurred with as little as 10^−7 M and may have even been inhibitory at higher concentrations. Of particular interest is the more dramatic response of the epicotyls versus the smaller response of the hypocotyls to CT. This same phenomenon was true for seedlings treated with >10^−7 M 6-deoxoCT.
A higher concentration of CT for dark-grown seedlings, compared with light-grown seedlings, 3×10^−6 M (FIG. 5B), was required to convert the hypocotyl to a length similar to that of the wild type.

6-week-old dwf4 plants = experiment: Treatment of soil-grown mature dwf4 plants with BR intermediates and BL (pedicel elongation); assay type: in vivo, Arabidopsis thaliana
Experimental: To determine whether the results of the seedling feeding experiments could be applicable to soil-grown mature plants, 6-week-old dwf4 plants were treated with BR intermediates and BL. Concentrations of applied intermediates were adjusted empirically to optimize responses. Consistent with the results obtained from the seedlings experiments, only 22α-hydroxylated compounds can rescue the dwf4 phenotype. The elongation response was only observed in the young tissues of the inflorescence, regardless of whether the BRs were applied locally or sprayed over the entire plant. In contrast to the striking elongation of the peduncles and pedicels, fertility was not restored by BR treatment. The sterility in dwf4 is hypothesized to be mechanical, which means that the filaments are shorter than the carpels such that the pollen is shed onto the ovary walls rather than onto the stigmatic surface. In fact, if dwf4 plants are hand pollinated using […], fertility increases.

dwf8-1 = experiment: Feeding of 22-OHCR to dwf8-1 dwarf mutant; assay type: in vivo, Arabidopsis thaliana; conditions: unpublished data
dwf4 seedlings [2] = experiment: Brassinolide response of seedlings in liquid culture (hypocotyl length); assay type: in vivo, Arabidopsis thaliana; conditions: liquid medium, 10^−6 M BL
Experimental: Gibberellic acid (GA) response was assayed on plants grown individually in 5.7-cm pots. Once inflorescences reached 1 to 2 mm in height, they were sprayed weekly with 1 mM GA3 (Sigma). Control plants were sprayed with water. One week after the third spraying, plants were collected, and the length of the main stem was measured between the top of the rosette and the base of the most distal pedicel; 13 to 18 plants of each line were measured per treatment. Auxin response was tested by growing seedlings for 10 days under 16 hr of light on vertically oriented agar plates containing various concentrations of 2,4-D (Gibco, Grand Island, N.Y.). Genetic interaction with the hy2 mutation was tested by growing seedlings under continuous light for 7 days. Brassinolide (BL) response was determined in liquid culture, as described by Clouse et al. (1993) supra, except that three or four seedlings were grown in each well of a 24-well culture plate for 7 days. Measurements were taken for 10 to 20 seedlings for each genotype and condition, under a dissection microscope fitted with an ocular micrometer.
In the course of our studies, we prepared a genomic library from dwf4-1, from which we isolated a clone in which a fragment of T-DNA interrupts a gene encoding a putative cytochrome P450 steroid hydroxylase.

rice lamina = conditions: Fujioka et al. (1995b); cited from earlier work

Row | Structure (SMILES) | rescue of the light-grown dwf4 phenotype (dwf4 seedlings [1]; light-grown seedlings) | effectiveness in rescuing the dwf4 phenotype, light versus dark (dwf4 seedlings [1]; unpublished data) | pedicel elongation response (6-week-old dwf4 plants; 22-OHCR 10^−5 M) | rescue of dwf8-1 dwarf mutant (dwf8-1) | dwf4 hypocotyl height (dwf4 seedlings [2]) | bioactivity in dwf4 pedicel elongation (6-week-old dwf4 plants; BL 10^−7 M) | degree of pedicel elongation response (6-week-old dwf4 plants; BL 10^−7 M versus precursors) | concentration required to convert the dwf4 hypocotyl to a length similar to wild type (dwf4 seedlings [1]; dark-grown seedlings) [µM] | concentration at which dwf4 overall morphology is rescued to wild-type phenotype (dwf4 seedlings [1]; light-grown seedlings, dose-response) | activity relative to 6-oxoCN (rice lamina) [times]
1 | CC(C)[C@H](C)C[C@H](O)[C@@H](C)[C@H]1CC[C@H]2[C@@H]3CC=C4C[C@@H](O)CC[C@]4(C)[C@H]3CC[C@]12C [22-OHCR, 22α-hydroxycampesterol] | rescued | more effective in the light | dramatic elongation response | not rescued |  |  |  |  |  | 
2 | CC(C)[C@H](C)[C@@H](O)[C@H](O)[C@@H](C)[C@H]1CC[C@H]2[C@@H]3COC(=O)[C@H]4C[C@H](O)[C@H](O)C[C@]4(C)[C@H]3CC[C@]12C [BL, 2α, 3α, 22(R), 23(R)-tetrahydroxy-24(S)-methyl-B-homo-7-oxa-5α-cholestan-6-one] |  |  |  |  | restored to wild-type height | highest bioactivity | approximately the same degree of response as its precursor compounds at 10^−6 M |  |  | 
3 | CC(C)[C@H](C)C[C@H](O)[C@@H](C)[C@H]1CC[C@H]2[C@@H]3CC(=O)[C@H]4C[C@@H](O)CC[C@]4(C)[C@H]3CC[C@]12C [CT, Cathasterone] | rescued |  |  |  |  |  |  | 3 | ≥ 3×10^−7 M | ~500
